The text below walks through data of patent US9669003B2, “Use of flavone and flavanone derivatives in preparation of sedative and hypnotic drugs” (priority 2012, dated 2017).

Holding throughout (type): in vivo
The test system of experiment [1] is Kunming mice. The experiment in a line: Influence on autonomic activity of normal mice (ZIL-2 mice autonomic activity meter, counts within 10 min). The settings on record: intragastric, x ± s, n = 10; for Times of activities in 1 h after drug administration/10 min: 1 h after administration; for Times of activities in 2 h after drug administration/10 min: 2 h after administration; for Times of activities in 24 h after drug administration/10 min: 24 h after administration. An outline of the steps: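 Activity counts during a 10-min window were taken at 1, 2 and 24 h after dosing in groups of 10 mixed-sex Kunming mice. Compounds were given in 0.5% CMC-Na at 25, 50 or 100 mg/kg. Statistics used Levene's homogeneity test, ANOVA and Dunnett's multiple comparisons.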

In experiment [2] the test system is Kunming mice. Kind of experiment: Influence on hypnosis effect with pentobarbital sodium doses below the threshold (25 mg/kg i.p.). The settings on record: pentobarbital sodium 25 mg/kg i.p. 60 min later, sleep observed in 30 min, n = 10. The essentials:
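Percentage of mice sleeping within 30 min after subthreshold pentobarbital sodium (25 mg/kg i.p.), defined by loss of righting reflex over 1 min, analysed by χ2. Compound in 0.5% CMC-Na given intragastrically at 25/50/100 mg/kg 60 min before; groups of 10 Kunming mice, both sexes.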

In experiment [3] the test system is Kunming mice. Kind of experiment: Influence on hypnosis effect with pentobarbital sodium doses at the threshold (50 mg/kg i.p.). The settings on record: pentobarbital sodium 50 mg/kg i.p. 60 min later, x ± s, n = 10. The essentials: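 Pentobarbital sodium (0.3%, 50 mg/kg i.p.) injected 60 min after a single intragastric dose (25, 50, 100 mg/kg, 0.5% CMC-Na vehicle) in Kunming mice, 10 per group, sexes balanced. Onset and length of sleep (righting reflex lost over 1 min) analysed by ANOVA; sleeping incidence by χ2 test.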

[4] abbreviates: test drug 25 mg/kg intragastric single dose.
Setting [5] is: test drug 50 mg/kg intragastric single dose.
[6] abbreviates: test drug 100 mg/kg intragastric single dose.
The mark [7] stands for this setting: 25 mg/kg intragastric single dose.
[8] abbreviates: 50 mg/kg intragastric single dose.
[9] abbreviates: 100 mg/kg intragastric single dose.

Molecules are shown by their SMILES. Marks after values point to notes of the source that are not given here.

As for `COc1cc(C2Oc3c(cc(OC)c(OC)c3OC)C(=O)C2OC)c(O)c(OC)c1OC` (stereo not drawn) [Example 69, 6′-hydroxyl-3,6,7,8,3′,4′,5′-hepta methoxyl-flavanone], the “Times of activities in 1 h after drug administration/10 min” value (shortened to “Times of activities in 1 h”) is on record as 322.3 ± 51.3 /10 min in the experiment on Kunming mice [1] (25 mg/kg), 298.0 ± 41.5 /10 min with Kunming mice [1] (50 mg/kg) and 289.3 ± 50.7 /10 min in the experiment with Kunming mice [1] (100 mg/kg). For the same molecule, the “Times of activities in 2 h after drug administration/10 min” value (from here on “Times of activities in 2 h”) is given as 278.3 ± 40.3 /10 min in the experiment with Kunming mice [1] (25 mg/kg), 251.7 ± 39.4 /10 min in the experiment on Kunming mice [1] (50 mg/kg) and 235.8 ± 47.4 /10 min with Kunming mice [1] (100 mg/kg). Also, the “Times of activities in 24 h after drug administration/10 min” value (“Times of activities in 24 h” for short) with Kunming mice [1] (25 mg/kg) is recorded as 299.1 ± 80.7 /10 min; in the experiment with Kunming mice [1] (50 mg/kg), 309.1 ± 91.0 /10 min; in the experiment on Kunming mice [1] (100 mg/kg), 320.4 ± 80.4 /10 min. Besides, the “Number of sleeping animals” value with Kunming mice [2] (setting [4]) stood at 3; in the experiment on Kunming mice [2] (setting [5]), 5; with Kunming mice [2] (setting [6]), 7. Besides, the “rate of sleeping (%)” value in the experiment on Kunming mice [2] (setting [4]) is on record as 30%; in the experiment with Kunming mice [2] (setting [5]) it was 50* %; in the experiment on Kunming mice [2] (setting [6]), 70** %. In addition, the duration of sleep in the experiment with Kunming mice [3] (setting [7]) worked out at 31.77 ± 22.78 min; in the experiment with Kunming mice [3] (setting [8]), 57.73 ± 18.49 min; in the experiment with Kunming mice [3] (setting [9]) it was 64.09 ± 31.23 min. Besides, the time to sleep in the experiment on Kunming mice [3] (setting [7]) was 4.98 ± 1.88 min; in the experiment with Kunming mice [3] (setting [8]), 4.27 ± 1.62 min; in the experiment with Kunming mice [3] (setting [9]) it was 3.87 ± 1.78 min.
Consider `CCCc1cc(O)cc2c1C(=O)CC(c1ccc(-c3ccccc3)c([N+](=O)[O-])c1)O2` (stereo not drawn) [Example 70], for which the results for the “Times of activities in 1 h” value in the experiment on Kunming mice [1] (25 mg/kg), with Kunming mice [1] (50 mg/kg) and in the experiment with Kunming mice [1] (100 mg/kg) were 233.5 ± 58.2 /10 min, 159.9 ± 45.0 /10 min and 129.3 ± 41.3 /10 min, respectively. Moreover, the “Times of activities in 2 h” value is recorded as 227.8 ± 32.9 /10 min in the experiment on Kunming mice [1] (25 mg/kg), 141.0 ± 46.3 /10 min in the experiment with Kunming mice [1] (50 mg/kg) and 117.8 ± 39.6 /10 min in the experiment with Kunming mice [1] (100 mg/kg). The figures for the “Times of activities in 24 h” value in the experiment with Kunming mice [1] (25 mg/kg), with Kunming mice [1] (50 mg/kg) and with Kunming mice [1] (100 mg/kg) were 316.0 ± 66.9 /10 min, 320.9 ± 81.4 /10 min and 320.7 ± 60.9 /10 min, respectively. Moreover, the “Number of sleeping animals” value in the experiment with Kunming mice [2] (setting [4]) was 6; with Kunming mice [2] (setting [5]), 8; in the experiment on Kunming mice [2] (setting [6]), 9. Also, the “rate of sleeping (%)” value in the experiment with Kunming mice [2] (setting [4]) is reported as 60** %; with Kunming mice [2] (setting [5]), 80*** %; in the experiment with Kunming mice [2] (setting [6]), 90*** %. For the same molecule, the duration of sleep with Kunming mice [3] (setting [7]) is reported as 47.57 ± 18.97 min; in the experiment with Kunming mice [3] (setting [8]) it was 61.38 ± 27.39 min; in the experiment on Kunming mice [3] (setting [9]), 73.09 ± 25.56 min. Moreover, the results for the time to sleep in the experiment with Kunming mice [3] (setting [7]), in the experiment with Kunming mice [3] (setting [8]) and with Kunming mice [3] (setting [9]) were 3.60 ± 1.69 min, 3.21 ± 1.35 min and 2.28 ± 1.13 min, respectively.
For the molecule `O=C1CC(c2ccc(O)c(O)c2)Oc2cc(O)cc(O)c21` (stereo not drawn) [Example 71], the “Times of activities in 1 h” value with Kunming mice [1] (25 mg/kg) is given as 301.5 ± 58.2 /10 min; in the experiment on Kunming mice [1] (50 mg/kg), 278.9 ± 45.0 /10 min; in the experiment with Kunming mice [1] (100 mg/kg), 249.3 ± 41.3 /10 min. The “Times of activities in 2 h” value in the experiment on Kunming mice [1] (25 mg/kg) is recorded as 267.8 ± 32.9 /10 min; with Kunming mice [1] (50 mg/kg), 263.0 ± 46.3 /10 min; in the experiment on Kunming mice [1] (100 mg/kg), 245.8 ± 39.6 /10 min. The “Times of activities in 24 h” value in the experiment with Kunming mice [1] (25 mg/kg) is listed as 318.0 ± 66.9 /10 min; with Kunming mice [1] (50 mg/kg), 322.9 ± 81.4 /10 min; with Kunming mice [1] (100 mg/kg), 325.7 ± 60.9 /10 min. Moreover, the results for the “Number of sleeping animals” value in the experiment on Kunming mice [2] (setting [4]), in the experiment on Kunming mice [2] (setting [5]) and with Kunming mice [2] (setting [6]) were 3, 5 and 6, respectively. Moreover, the results for the “rate of sleeping (%)” value in the experiment on Kunming mice [2] (setting [4]), in the experiment with Kunming mice [2] (setting [5]) and in the experiment on Kunming mice [2] (setting [6]) were 30%, 50* % and 60** %, respectively. Besides, the duration of sleep was determined as 30.48 ± 22.67 min in the experiment with Kunming mice [3] (setting [7]), 36.63 ± 20.19 min with Kunming mice [3] (setting [8]) and 56.62 ± 24.57 min in the experiment with Kunming mice [3] (setting [9]). Besides, the time to sleep with Kunming mice [3] (setting [7]) was 5.55 ± 1.83 min; in the experiment on Kunming mice [3] (setting [8]) it was 3.73 ± 1.39 min; in the experiment with Kunming mice [3] (setting [9]), 3.82 ± 1.40 min.
